Reference: ChEMBL document CHEMBL1212727, “Design, synthesis and selection of DNA-encoded small-molecule libraries” (Nat Chem Biol, 2009)

Assays:
[1] = biological target: T1, Aurora kinase A (Homo sapiens, UniProt O14965); assay: Inhibition of Aurora A ATP-binding site
T1 sequence (O14965 whole entry): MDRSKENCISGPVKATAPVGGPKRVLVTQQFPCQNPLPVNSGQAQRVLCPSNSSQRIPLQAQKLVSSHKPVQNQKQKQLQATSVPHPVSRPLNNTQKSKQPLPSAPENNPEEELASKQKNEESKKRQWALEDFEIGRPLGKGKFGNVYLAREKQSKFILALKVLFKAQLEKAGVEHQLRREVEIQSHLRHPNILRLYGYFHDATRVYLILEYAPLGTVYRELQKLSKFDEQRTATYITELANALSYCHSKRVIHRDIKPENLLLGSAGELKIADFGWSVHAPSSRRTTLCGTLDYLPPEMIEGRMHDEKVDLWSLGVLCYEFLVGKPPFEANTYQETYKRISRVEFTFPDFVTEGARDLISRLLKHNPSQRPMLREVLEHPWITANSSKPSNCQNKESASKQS

[2] = biological target: T2, Mitogen-activated protein kinase 14 (Homo sapiens, UniProt Q16539); assay: Inhibition of p38alpha assessed as inhibition of [gamma-33P]ATP incorporation into substrate after 4 hrs by radiometric assay
T2 sequence (Q16539 whole entry): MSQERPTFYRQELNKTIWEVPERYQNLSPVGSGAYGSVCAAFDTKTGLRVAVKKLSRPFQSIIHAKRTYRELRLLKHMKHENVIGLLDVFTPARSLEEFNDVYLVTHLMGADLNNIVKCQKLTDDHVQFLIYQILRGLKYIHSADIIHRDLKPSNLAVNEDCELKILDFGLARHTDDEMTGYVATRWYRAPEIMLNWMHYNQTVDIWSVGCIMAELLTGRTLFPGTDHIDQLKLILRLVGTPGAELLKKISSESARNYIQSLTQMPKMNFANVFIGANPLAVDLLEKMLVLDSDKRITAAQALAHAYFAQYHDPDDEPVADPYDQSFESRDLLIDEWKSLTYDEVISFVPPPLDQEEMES

[3] = biological target: T1, Aurora kinase A; assay: Inhibition of Aurora A ATP-binding site assessed as inhibition of [gamma-33P]ATP incorporation into substrate by scintillation counting
[4] = biological target: T2, Mitogen-activated protein kinase 14; assay: Displacement of […] form p38alpha after 30 mins by luminescence assay

Row | Compound | IC50 [3] [nM] | EC50 [4] [nM] | also measured
1 | Cc1cc(Nc2cc(N3CCN(CC(=O)O)CC3)nc(Sc3ccc(NC(=O)C4CC4)cc3)n2)n[nH]1 |  |  | Ki [1]: 20 nM
2 | CONC(=O)c1ccc(C)c(Nc2nc(NCC3CCCC(CN)C3)nc(NC(C)C(C)(C)C)n2)c1 (stereo not drawn) |  |  | IC50 [2]: ≤ 2 nM
3 | CONC(=O)c1ccc(C)c(Nc2nc(NCC3CCCC(CN)C3)nc(NC3CCCCC3)n2)c1 (stereo not drawn) |  |  | IC50 [2]: ≤ 2 nM
4 | CONC(=O)c1ccc(C)c(Nc2nc(NCc3cccc(C)c3)nc(NC(C)C(C)(C)C)n2)c1 (stereo not drawn) |  |  | IC50 [2]: 15 nM
5 | CCCCN(C)c1nc(NCCc2ccccc2OC)nc(NCCc2c[nH]c3ncccc23)n1 | 1.2 |  | 
6 | COc1ccccc1CCNc1nc(NC(Cc2c[nH]c3ncccc23)C(N)=O)nc(N(C)[C@@H](C)c2ccccc2)n1 (stereo partly drawn) | 6.3 |  | 
7 | CNc1nc(NCCc2ccccc2OC)nc(Nc2ccc3ncccc3c2)n1 | 5.1 |  | 
8 | CCOc1nc(N[C@@H](Cc2ccc3c(c2)COC(C)(C)O3)C(=O)NC)nc(-n2cnc3cc(C(=O)N4CCCc5ccccc54)ccc32)n1 |  | 2700 | 
9 | CCOc1nc(N[C@@H](Cc2ccc3c(c2)COC(C)(C)O3)C(=O)NC)nc(-n2cnc3ccc(C(=O)N4CCCc5ccccc54)cc32)n1 |  | ≤ 8 | 
10 | CNC(=O)[C@H](Cc1ccc2c(c1)COC(C)(C)O2)Nc1nc(O)nc(-n2cnc3cc(C(=O)N4CCCc5ccccc54)ccc32)n1 |  | 5200 | 

Second part, led by results:

Row | IC50 [3] [nM] | EC50 [4] [nM] | Compound | also measured
11 | 3.8 |  | CCCCN(C)c1nc(NCCc2ccccc2OC)nc(NC(Cc2c[nH]c3ncccc23)C(N)=O)n1 (stereo not drawn) | 
12 | 3.7 |  | COc1ccccc1CCNc1nc(Nc2ccc3ncccc3c2)nc(NC(Cc2c[nH]c3ncccc23)C(N)=O)n1 (stereo not drawn) | 
13 |  | ≤ 7 | CNC(=O)[C@H](Cc1ccc2c(c1)COC(C)(C)O2)Nc1nc(-n2cnc3ccc(C(=O)N4CCCc5ccccc54)cc32)nc(=O)[nH]1 | 
